Source: patent US11352400B2, “PI3K gamma inhibitor peptide for treatment of respiratory system diseases” (Kither Biotech S.r.I., priority 2014, dated 2022)

Columns and labels:
ΔF508-CFTR = assay: Chloride currents in Ussing chamber, CuFi-1 cells; format: cell-based, human; conditions: CuFi-1 cells corrected with VX-809 (20 μM, 24 hours); peptide 10 μM in the presence of VX-770 10 μM
Experimental: (§1) Human airway epithelial cell lines expressing a wild-type CFTR (NuLi-1) or with the ΔF508 mutation (CuFi-1) were purchased from ATCC (NuLi-1 product code: ATCC® CRL-4011™; CuFi-1 product code: ATCC® CRL-4013™). Cells were cultured in Dulbecco's Modified Eagle Medium (DMEM, Gibco, Carlsbad, Calif.) supplemented with 10% fetal bovine serum (FBS), 30 μg/mL of penicillin, 100 μg/mL of streptomycin and 300 μg/mL hygromycin B (Gibco, Carlsbad, Calif.).
(§2) To measure chloride currents in normal and ΔF508 primary human bronchial epithelial cells, cells were cultured on 1.12 cm^2 Snapwell inserts. Filters were mounted in Ussing chambers, and a chloride gradient was applied by incubating the cells in a basolateral high-chloride buffer containing (in mmol/L): 140 NaCl, 5 KCl, 0.36 K2HPO4, 0.44 KH2PO4, 1.3 CaCl2, 0.5 MgCl2, 4.2 NaHCO3, 10 HEPES, and 10 glucose, at pH 7.4 and an apical low-chloride buffer containing (in mmol/L): 133.3 Na-gluconate, 5 K-gluconate, 2.5 NaCl, 0.36 K2HPO4, 0.44 KH2PO4, 5.7 CaCl2, 0.5 MgCl2, 4.2 NaHCO3, 10 HEPES, and 10 mannitol, at pH 7.4. Buffers were aerated with a mixture of 95% O2 and 5% CO2 and the temperature was maintained at 37° C. during the experiment. […] After a stabilization period of 30 minutes, drugs were added at specific times, while the current was continuously recorded.

[1] = tested on: ovalbumin (OVA)-induced asthma mice; assay: Airway hyperresponsiveness (tidal volume) in ovalbumin-induced asthma model; format: in vivo, BALB/C mice; conditions: OVA-sensitized mice; 150 μg intra-tracheal, 30 minutes before methacholine; vs PBS or P1
Experimental: Ovalbumin (100 μg) (OVA, Sigma-Aldrich, St. Louis, Mo.), complexed with aluminum potassium sulfate (1 mg, alum) was administered intraperitoneally (i.p.) on days 1 and 14, and intra-nasally (i.n.) (50 μg OVA in 50 μl PBS) on days 14, 25, 26, and 27. Control mice received i.p. injections of alum and i.n. injections of PBS only. Airway hyperreactivity induced by inhaled methacholine was measured at 24 hours after the final dose of OVA (Day 28).
Method 2: Mice sensitized to ovalbumin were treated, by intra-tracheal instillation, with 70 μL of phosphate-buffered saline solution (PBS) containing vehicle or 150 μg of the Trojan peptide derived from PI3Kγ or equimolar amounts of P1 control peptide. Airway hyperresponsiveness was assessed at 30 minutes after the treatment according to a previously published protocol (6). […] The airway opening pressure (Pao), proximal to the endotracheal tube, and the pressure inside the chamber were measured with pressure transducers (Special Instruments, Digima Clic; Nordlingen, Germany). Gas flow was measured with a pneumotachograph (Special Instruments, Digima Clic; Nordlingen, Germany). Tidal volume was calculated as the integral of the flow signal. Variables of mechanical ventilation were recorded using the ICU-Lab software (KleisTEK Advanced Electronic Systems, Bari, Italy). […]

[2] = tested on: cAMP levels in the airways; assay: cAMP extraction and quantification in trachea and lungs of treated mice; format: in vivo, BALB/C mice; conditions: intra-tracheal, 1.5 μg/mouse, 30 minutes; vs PBS or P1 control peptide
Experimental: Lungs and trachea were explanted from animals following euthanasia, pulverized in liquid nitrogen and used for cold extraction of cAMP with 6% trichloroacetic acid. Samples were sonicated for 10 seconds and centrifuged at 13000 rpm at 4° C. for 15 minutes. Supernatants were washed four times with five volumes of diethyl ether saturated with water and lyophilized. cAMP content was detected with an Amersham cAMP BioTrak Enzymeimmunoassay System (GE Healthcare Life Sciences, Pittsburgh, USA, product code: RPN225), according to the manufacturer's protocol.
Wild-type BALB/C mice were injected by the intra-tracheal route with 1.5 μg of the Trojan peptide derived from PI3Kγ conjugated to fluorescein or vehicle, in a final volume of 70 μL of PBS. After 30 minutes, animals were anesthetized, the trachea and lungs were insufflated with PBS, extracted and frozen in OCT. Cryosections of 10 microns were obtained with a Leica CM1850 cryostat (Leica Microsystems GmbH, Wetzlar, Germany) and fluorescence was acquired with a Zeiss Observer-Z1, equipped with an Apotome module (Carl Zeiss, Oberkochen, Germany).

hBSMCs = assay: Measurements of calcium transients (Indo-1) in hBSMCs; format: cell-based, human; conditions: 50 μM, 30 minutes
Experimental: Cells were washed with a Tyrode solution containing (in mmol/L): 5 HEPES, 154 NaCl, 4 KCl, 2 CaCl2, 1 MgCl2, 5.5 D-glucose, at pH 7.35 and placed on an inverted microscope. Cells were kept in Tyrode solution and treated with a KCl depolarizing solution containing (in mmol/L): 5 HEPES, 118 NaCl, 40 KCl, 2 CaCl2, 1 MgCl2, 5.5 D-glucose, at pH 7.35. Calcium transients were analyzed as the ratio of fluorescence signals measured at 400 nm and 490 nm following excitation of Indo-1-AM-loaded cells at 350 nm. Experiments were recorded and analyzed with Igor® Software, using the functions added by Jason Rothman (Neuromatic, www.thinkrandom.com).

wild-type CFTR = assay: Chloride currents in Ussing chamber, NuLi-1 cells; format: cell-based, human; conditions: peptide 10-30 μM, P1 30 μM
Experimental: as §1, §2

[3] = tested on: airway hyperreactivity induced by the muscarinic agonist methacholine in healthy mice; assay: Airway hyperreactivity to methacholine in healthy mice; format: in vivo, BALB/C mice; conditions: peptide 1.5 μg or equimolar P1, increasing doses of methacholine
[4] = tested on: Cav1.2 subunit (Ser-1928) of the L-type calcium channel (LTCC); assay: Western blot of cAMP-dependent phosphorylation of Cav1.2 in hBSMCs; format: cell-based, human; conditions: 50 μM, 30 minutes, vs vehicle or P1
Experimental: For protein extraction from murine tracheal smooth muscle cells (mTSMCs) and human bronchial smooth muscle cells (hBSMCs), cells were treated with the indicated drugs/peptides and immediately lysed in cold lysis buffer containing 120 mmol/L NaCl, 50 mmol/L Tris-HCl (pH 8.0), complete protease inhibitors (Roche Applied Science, Indianapolis, Ind.) and phosphatase inhibitors (50 mmol/L sodium fluoride, 1 mmol/L sodium orthovanadate and 10 mmol/L sodium pyrophosphate). After 30 min of incubation on ice, lysates were centrifuged at 13000 rpm for 10 min at 4° C. and used for either Western blotting or subjected to immunoprecipitation and measurements of phosphodiesterase activity.

Q: “RQIKIWFQNRRMKWKKGKATHRSPGQIHLVQRHPPSEESQAF (fusion peptide comprising SEQ ID No.1 and SEQ ID No.3) [Trojan peptide derived from PI3Kγ]” was tested. Which “increase of the CFTR currents over basal activity” value (ΔF508-CFTR) did it give?
A: Its value is “about 5 fold”.

Q: And the “reduction of the tidal volume induced by methacholine” value [1]?
A: The value was “significantly attenuated”.

Q: What about the “cAMP levels in the trachea and in the lungs, higher than controls” value [2] of the same sequence?
A: The value was 30%.

Q: And the “influx of Ca2+ induced by KCl (through VOCCs)” value (hBSMCs; 40 mM KCl depolarizing solution)?
A: Its value is “completely abolished”.

Q: And the “maximum peak of Ca2+ transients induced by carbachol” value (hBSMCs; carbachol 10 μM, vs vehicle or P1)?
A: The value was “significantly lower”.

Q: What about the “CFTR-dependent Cl− currents” value (wild-type CFTR) of the same sequence?
A: The value was “increased significantly”.

Q: And the “airway hyperreactivity induced by methacholine (average lung resistance)” value [3]?
A: The value was “significantly attenuated”.

Q: And the “cAMP-mediated phosphorylation of Cav1.2” value [4]?
A: The value was “significantly higher”.
